Assay results from patent publication US7250269B2, “Composition for assaying glycoprotein” (Asahi Kasei Pharma Corporation, priority 2001, dated 2007).
Where two headings read alike, the source gives them in different places.

What was measured:
Protease type-XXIV [1] = assay: Screening of globulin component-selective protease inhibitors (HSA substrate with/without γ-globulin); format: biochemical, Bacillus; details: additive concentration 1.0%; control 23.8
Excerpt: Using protease type-XXIV (manufactured by Sigma-Aldrich Co.) having high reactivity with the HSA substrate solution, components that decrease the protease reaction with the above globulin substrate solutions were screened based on the HSA substrate solution.
In the R-1 proteolytic reagent, as the deoxycholic acid amide, bisgluconamidopropyldeoxycholamide was used; as the cholic acid amide, 3-[(3-cholamidopropyl)dimethvlammonio]propane sulfonic acid, 3-[(3-cholamidopropyl)dimethylammonio]-2-hydroxypropane sulfonic acid, or bisgluconamidopropylcholamide was used; as the quaternary ammonium salt, benzyltriethylan chloride or benzyltri-n-butylammonium chloride was used; and as quatemary ammonium salt-type cationic surfactant, lauryltrimethylammonium chloride or lauryldimethylamine oxide was used.
• 1. HSA substrate solution: Albumin Human: 40 mg/ml, GA %=10.5% [manufactured by Wako Pure Chemical Industries, Ltd., the albumin concentration in the substrate solution was assayed using an albumin assay kit (albumin II-HA Test Wako; manufactured by Wako Pure Chemical Industries, Ltd.). GA % was assayed using a glycated albumin analyzer (GAA-2000, manufactured by ARKRAY, Inc.). • 2. γ-globulin addition substrate solution, 17.0 mg/ml of γ-globulin [γ-Globulins Human (manufactured by Sigma-Aldrich Co.), Fructosamine value=34 μM] was added to the above HSA substrate solution. <Reaction Procedure>
Absorbances at a wavelength of 546 nm were measured before and after the addition of R-2. The difference of the two measurements was regarded as the absorbance change. The same procedure was conducted using distilled water instead of the substrate to prepare a blank sample. In addition, a reaction solution without the addition of the globulin-selective protease inhibitor was used as a control.
ΔA (HSA) was calculated by subtracting the absorbance change of the blank sample from the absorbance change obtained for the HSA substrate solution. ΔA(+γ-globulin) was calculated by subtracting the absorbance change of the blank sample from the absorbance change obtained for the substrate solution to which γ-globulin was added. Effect of γ-globulin addition=(ΔA(+γ-globulin)−ΔA(HSA))/ΔA(HSA)×100(%)

Protease type-XXIV [2] = format: biochemical, Bacillus
Protocol: 5 g/dl HSA (LOT38H7601; manufactured by Sigma-Aldrich Co.)
8 μl of a sample was added to 240 μl of the proteolytic reagent incubated at 37° C. […] A relative sensitivity for the experiment using the reagent containing a stabilizer to the experiment using the reagent not containing a stabilizer was calculated assuming that ΔA0obtained using the reagent not containing a stabilizer and used without storing is 100%.

[3] = test system: heat-stable type ascorbic acid oxidase (ASO-312); assay: Effect of buffer agent types on stabilization of ascorbic acid oxidase ASO-312 in the presence of protease; format: biochemical; details: pH 8.0, stored two days at room temperature
Protocol: 1 ml of the above mixed reaction reagent is placed in a small test tube and preheated at 30° C. for five minutes, then 0.10 ml of an appropriately diluted enzyme solution is added. The mixture is stirred to initiate the reaction. After the reaction for exactly 5 minutes, 3.0 ml of 0.2 N hydrochloric acid aqueous solution is added to terminate the reaction. Absorbance (As) at a wavelength of 245 nm is measured. For the blank test, 1 ml of the above reaction solution is placed in a small test tube and preheated at 30° C. for five minutes, then 3.0 ml of 0.2 N hydrochloric acid aqueous solution is added to terminate the reaction. 0.10 ml of an appropriately diluted enzyme solution is added and the mixture is stirred to measure the absorbance (Ab) at a wavelength of 245 nm. The enzyme activity is determined from the difference (Ab-As) between the absorbance (As) after the enzyme reaction and the blank test absorbance (Ab). The amount of enzyme oxidizing 1 μmol of ascorbic acid into dehydroascorbic acid in one minute at 30° C. is defined as 1 U. The calculation formula is shown below. Activity (U/ml)=[(Ab−As)/10.0]×[⅕]×[4.10/0.10]×[1/B] • 10.0: Molecular absorbance coefficient (mM) of ascorbic acid at 245 nm under the conditions of pH 1.0. • 5: Reaction time (min) • 4.10: Total reaction solution (ml) • 0.10: Amount of enzyme sample solution used for the reaction • B: Dilution magnification of the enzyme solution
The above reaction solutions were prepared using various buffer agents. A portion of each solution was used as a control after measuring the ascorbic acid oxidase activity. The above-described <<Method for Measuring the Activity of Ascorbic Acid Oxidase (ASOx)>> was employed for the activity measurement. The remaining portion of reaction solutions was stored for two days at room temperature, and the activity was measured in the same manner. The ratio of the activity after storage for two days at room temperature to the activity of the control was calculated to compare the stability of ascorbic acid oxidases.

[4] = molecular target: T1, Ascorbic acid oxidase (ASO-311) (Cucurbita maxima, UniProt P24792); details: pH 8.0, stored two days at room temperature
T1 sequence (P24792 31-579): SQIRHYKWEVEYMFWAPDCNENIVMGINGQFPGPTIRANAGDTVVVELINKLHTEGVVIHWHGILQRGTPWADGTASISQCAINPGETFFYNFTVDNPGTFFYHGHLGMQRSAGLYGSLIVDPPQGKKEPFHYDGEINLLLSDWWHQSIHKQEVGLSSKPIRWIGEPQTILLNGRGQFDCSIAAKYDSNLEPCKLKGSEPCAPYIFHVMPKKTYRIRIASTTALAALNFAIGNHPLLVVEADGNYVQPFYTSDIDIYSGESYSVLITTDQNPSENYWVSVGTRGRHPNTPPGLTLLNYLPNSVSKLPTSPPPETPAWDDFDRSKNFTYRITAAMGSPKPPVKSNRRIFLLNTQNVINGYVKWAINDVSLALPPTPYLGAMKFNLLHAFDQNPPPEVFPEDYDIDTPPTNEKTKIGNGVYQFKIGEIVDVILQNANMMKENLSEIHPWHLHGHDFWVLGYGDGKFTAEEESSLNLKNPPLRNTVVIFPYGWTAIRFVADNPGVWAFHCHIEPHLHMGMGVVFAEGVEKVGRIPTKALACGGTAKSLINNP

Ascorbic acid oxidase = molecular target: T2, Ascorbic acid oxidase (Cucurbita maxima, UniProt P24792); details: R-1 stored 24 hours at room temperature; FIG. 4
T2 sequence (P24792 31-579): T1 sequence (P24792 31-579)
Protocol: An ascorbic acid-addition substrate solution was prepared by adding one volume of ascorbic acid (1 g/dl) (manufactured by Kokusan Chemical Co., Ltd.) to nine volume of human pool blood serum. A solution prepared by adding distilled water instead of ascorbic acid was used as a control substrate solution.
8 μl of the control substrate solution or ascorbic acid-addition substrate solution was added to 240 μl of R-1 incubated at 37° C. The reaction was initiated at 37° C. and exactly 5 minutes thereafter 80 μl of R-2 was added. Absorbance at 555 nm was measured before the addition of R-2 and five minutes after the addition of R-2. ΔA0 was calculated by subtracting the absorbance change obtained from a blank sample using distilled water instead of the substrate solution from the absorbance change obtained from the absorbance measurement on the control substrate solution and ascorbic acid-addition substrate solution. The same reaction solution R-1 was stored at room temperature for 24 hours, and the absorbance was measured in the same manner to calculate ΔA24. The ratio of ΔA0 and ΔA24 obtained from the ascorbic acid-addition substrate solution was calculated assuming the absorbance change obtained from the control substrate solution as 100.

ASOx = assay: Storage of ASOx with protease in HEPES buffer solution pH 8.0 (inventors' investigation); format: biochemical; details: pH 8.0, protease and ASOx present
[5] = FOD enzyme activity / substrate specificity on glycated lysine; format: biochemical; details: glycated lysine / glycated valine
Protocol: 164 strains of mutant colonies obtained in Example 15 were cultured for 16 hours at 30° C. in 1.5 ml of a 3.7% BHI liquid medium (manufactured by DIFCO Co.) containing 50 μg/ml of ampicillin and 1 mM of IPTG. 1 ml of the culture broth was centrifuged (15,000 G for one minute at 4° C.) to collect cells. 200 μl of 10 mM Tris-HCl buffer solution (pH 8.0) was added to the collected cells. After crushing the cells using an ultrasonic breaker, the mixture was centrifuged (14,000 G for five minutes at 4° C.) to obtain a cell extract as a supernatant.
The glycated amino acid substrate specificity of FOD-mutated recombinant contained in the cell extract prepared in Example 16 was measured using the above-mentioned FOD enzyme activity measuring method.
Synthesis of an oligonucleotide having the base sequence of 1-27 in the sequence table Sequence ID No. 7 was consigned to an outside source (BEX Co., Ltd.). The oligonucleotide was subjected to the site-directed mutagenesis using the Mutan-K kit (manufactured by Takara Shuzo Co., Ltd.) according to the manual attached to the kit. The mutant gene obtained was incorporated again into the expression plasmid pTV119N, introduced into Escherichia coli host, and cultured at 30° C. for 16 hours in a 3.7% BHI liquid medium containing 50 μg/ml of ampicillin and 1 mM of IPTG to produce mutant FOD protein.

R-FOD-II = assay: Stabilization of enzyme reacting at least with glycated amino acid; format: biochemical; details: for stabilization effect on glycated amino acid assay reagent (relative sensitivity): stored at 37° C. for two days, without stabilizer 30%, FIG. 6
Protocol: 8 μl of a sample was added to 240 μl of the proteolytic reagent incubated at 37° C. […] A relative sensitivity for the experiment using the reagent containing a stabilizer to the experiment using the reagent not containing a stabilizer was calculated assuming that ΔA0 obtained using the reagent not containing a stabilizer and used without storing is 100%.

[6] = stored at 37° C. for 24 hours, without stabilizer 60%, FIG. 5
[7] = stored in a liquid state in a refrigerator

## CC[N+](CC)(CC)Cc1ccccc1.[Cl-] [Benzyltriethylammonium chloride]
Protease type-XXIV [1]
  Effect of γ-globulin (%): 16.5%

## C[N+](C)(C)Cc1ccccc1.[Br-] [Benzyltrimethylammonium bromide]
Protease type-XXIV [1]
  Effect of γ-globulin (%): 23.1%

## C[N+](C)(C)Cc1ccccc1.[Cl-] [Benzyltrimethylammonium chloride]
Protease type-XXIV [1]
  Effect of γ-globulin (%): 23.2%

## C[C@H](CCC(=O)O)[C@H]1CC[C@H]2[C@@H]3[C@H](O)C[C@@H]4C[C@H](O)CC[C@]4(C)[C@H]3C[C@H](O)[C@]12C [Cholic acid]
Protease type-XXIV [1]
  Effect of γ-globulin (%): 23.0%

## C[S+](C)[O-] [DMSO, Dimethylsulfoxide]
Protease type-XXIV [2]; storage for 4 weeks at 37° C.
  decrease in performance of proteolytic reagent: almost no decrease in performance
Protease type-XXIV [2]; stored at 37° C. for 24 hours, FIG. 5
  decrease in performance of proteolytic reagent: almost no decrease in performance
Protease type-XXIV [2]; [6]
  stabilization effect on proteolytic reagent (relative sensitivity): stabilization effect
Protease type-XXIV [2]; [7]
  storage stability effect: one year or more

## O=S(=O)(O)CCCN1CCN(CCO)CC1 [EPPS]
[3]; Pronase
  Relative activity (%) ASO-312: 31%
[3]; Protease type XXIV
  Relative activity (%) ASO-312: 30%
[4]; Pronase
  Relative activity (%) ASO-311: 13%
[4]; Protease type XXIV
  Relative activity (%) ASO-311: 35%
Ascorbic acid oxidase
  ascorbic acid eliminating capability after storing: almost no ascorbic acid eliminating capability

## CCO [EtOH, Ethanol]
Protease type-XXIV [2]
  stabilization effect on proteolytic reagent (relative sensitivity): stabilization effect

## O=S(=O)(O)CCN1CCN(CCO)CC1 [HEPES]
[3]; Pronase
  Relative activity (%) ASO-312: 37%
[3]; Protease type XXIV
  Relative activity (%) ASO-312: 34%
[4]; Pronase
  Relative activity (%) ASO-311: 17%
[4]; Protease type XXIV
  Relative activity (%) ASO-311: 31%
Ascorbic acid oxidase
  ascorbic acid eliminating capability after storing: almost no ascorbic acid eliminating capability
ASOx; one day at 37° C.
  ascorbic acid treating capability after storage: lost almost entirely
ASOx; two weeks at 10° C.
  ascorbic acid treating capability after storage: lost almost entirely

## O=S(=O)(O)CC(O)CN1CCN(CCO)CC1 (stereo not shown) [HEPPSO]
[3]; Pronase
  Relative activity (%) ASO-312: 34%
[3]; Protease type XXIV
  Relative activity (%) ASO-312: 22%
[4]; Pronase
  Relative activity (%) ASO-311: 14%
[4]; Protease type XXIV
  Relative activity (%) ASO-311: 37%
Ascorbic acid oxidase
  ascorbic acid eliminating capability after storing: almost no ascorbic acid eliminating capability

## CCCCCCCCCCCC[N+](C)(C)[O-] [Lauryldimethylamine oxide]
Protease type-XXIV [1]
  Effect of γ-globulin (%): 17.8%

## CCCCCCCCCCCC[N+](C)(C)C.[Cl-] [Lauryltrimethylammonium chloride]
Protease type-XXIV [1]
  Effect of γ-globulin (%): 16.7%

## C[C@H](CCC(=O)N(CCCNC(=O)[C@H](O)[C@@H](O)[C@H](O)[C@H](O)CO)CCCNC(=O)[C@H](O)[C@@H](O)[C@H](O)[C@H](O)CO)[C@H]1CC[C@H]2[C@@H]3[C@H](O)C[C@@H]4C[C@H](O)CC[C@]4(C)[C@H]3C[C@H](O)[C@]12C [N,N-Bis(3-D-gluconamidopropyl)cholamido]
Protease type-XXIV [1]
  Effect of γ-globulin (%): 21.0%

## C[C@H](CCC(=O)N(CCCNC(=O)[C@H](O)[C@@H](O)[C@H](O)[C@H](O)CO)CCCNC(=O)[C@H](O)[C@@H](O)[C@H](O)[C@H](O)CO)[C@H]1CC[C@H]2[C@@H]3CC[C@@H]4C[C@H](O)CC[C@]4(C)[C@H]3C[C@H](O)[C@]12C [N,N-Bis(3-D-gluconamidopropyl)deoxycholamido]
Protease type-XXIV [1]
  Effect of γ-globulin (%): 19.9%

## CCCCCCCCO[C@@H]1O[C@H](CO)[C@@H](O)[C@H](O)[C@H]1O [Octylglucoside]
Protease type-XXIV [1]
  Effect of γ-globulin (%): 18.5%

## O=S(=O)(O)CC(O)CN1CCN(CC(O)CS(=O)(=O)O)CC1 (stereo not shown) [POPSO]
[3]; Pronase
  Relative activity (%) ASO-312: 80%
[3]; Protease type XXIV
  Relative activity (%) ASO-312: 56%
[4]; Pronase
  Relative activity (%) ASO-311: 80%
[4]; Protease type XXIV
  Relative activity (%) ASO-311: 62%
Ascorbic acid oxidase
  ascorbic acid eliminating capability after storing: no change

## O=P(O)(O)O [Phosphoric acid, phosphoric acid]
[3]; Pronase
  Relative activity (%) ASO-312: 108%
[3]; Protease type XXIV
  Relative activity (%) ASO-312: 86%
[4]; Pronase
  Relative activity (%) ASO-311: 88%
[4]; Protease type XXIV
  Relative activity (%) ASO-311: 77%

## N=C(N)NCCC[C@H](N)C(=O)O [Reactive 327th amino acid Arginine]
[5]
  Reactivity ratio, glycated lysine / glycated valine: 440

## C[C@@H](O)[C@H](N)C(=O)O [Reactive 327th amino acid Threonine]
[5]
  Reactivity ratio, glycated lysine / glycated valine: 927

## [Ca+2].[Cl-].[Cl-] [calcium chloride, Calcium chloride]
R-FOD-II
  stabilization effect on glycated amino acid assay reagent (relative sensitivity): stabilization effect
Protease type-XXIV [2]
  decrease in performance of proteolytic reagent: almost no decrease in performance
  stabilization effect on proteolytic reagent (relative sensitivity): stabilization effect
  storage stability effect: one year or more

## NCC(=O)O [glycine, Glycine]
R-FOD-II; storage for four weeks at 37° C.
  decrease in performance of glycated amino acid assay reagent: almost no decrease in performance
R-FOD-II
  stabilization effect on glycated amino acid assay reagent (relative sensitivity): stabilization effect
R-FOD-II; [7]
  storage stability effect: one or more years
[5]
  Kcat Reactivity ratio (a)/(b): 365

## [Cl-].[Na+] [sodium chloride, Sodium chloride]
Protease type-XXIV [2]; [6]
  stabilization effect on proteolytic reagent (relative sensitivity): stabilization effect

## Alkylbenzyldimethylammonium chloride
Protease type-XXIV [1]
  Effect of γ-globulin (%): 23.2%

## Triethanolamine lauryl sulfate [TEALS]
Protease type-XXIV [2]; [6]
  stabilization effect on proteolytic reagent (relative sensitivity): stabilization effect

## trishydroxymethylaminomethane
[3]; Pronase
  Relative activity (%) ASO-312: 62%
[3]; Protease type XXIV
  Relative activity (%) ASO-312: 44%
[4]; Pronase
  Relative activity (%) ASO-311: 55%
[4]; Protease type XXIV
  Relative activity (%) ASO-311: 52%
Ascorbic acid oxidase
  ascorbic acid eliminating capability after storing: no change
